Laboratory results reported in patent publication EP4768484A1, “HETEROCYCLIC FUSED RING COMPOUND, AND COMPOSITION AND USE THEREOF” (Shenzhen TargetRx, Inc., priority 2023, dated 2025).

How the values were obtained:
Type in all cases: cell-based
[1] = system: Ba/F3 parental cells; experiment: Cell growth inhibitory activity assay (CellTiter-Glo), Ba/F3 parental cells; conditions: Mus musculus, BaF3, 72 h, CTG cell viability, read-out: IC50 Ba/F3 BCR-ABL1 Parental
Outline: (§1)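 Ba/F3 parental cells or Ba/F3 lines lentivirally transduced with WT or mutant BCR-ABL1, seeded overnight then exposed to serially diluted compound 72 h at 37 °C, 5% CO2. Viability by CellTiter-Glo ATP luminescence with a T0 plate; 0.5% DMSO controls; IC50 from four-parameter nonlinear fit.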

[2] = biological target: T1, Ba/F3 BCR-ABL1 A424T (Homo sapiens, UniProt P00519+P11274, A424T); experiment: Cell growth inhibitory activity assay (CellTiter-Glo), Ba/F3 BCR-ABL1 A424T cells; conditions: 72 h, CTG cell viability
T1 construct: BCR (N-terminal fusion partner of the oncoprotein); expressed in transfected cells; host or cells: Ba/F3 (lentiviral transduction, monoclonal line)
Description: (§2) In this assay, the Celltiter-Glo (CTG) kit provided by Promega was used, and it is a homogeneous cell viability assay method. The cell viability of cultured cells was measured by quantifying ATP. K562 cells were purchased from Nanjing Kebai, product number CBP60529; Ba/F3 parental cells were purchased from RIKEN BRC, product number RCB0805; other cells containing BCR-ABL1 WT, BCR-ABL1 T315I, BCR-ABL1 T315M, BCR-ABL1 Y253H/E255K, BCR-ABL1 E255V/T3151, BCR-ABL1 A424T, BCR-ABL1 A337V, BCR-ABL1 P465S, BCR-ABL1 V468F, and BCR-ABL1 I502L were all monoclonal engineered cell lines obtained by transducting Ba/F3 parental cells with the lentivirus plasmids containing WT or corresponding mutated BCR-ABL1.
(§3) The steps of cell viability assay are as follows: • a) Cells in logarithmic growth phase were collected. Cell suspension was prepared and the cells were counted. Concentration of the cells was calculated. • b) The cell suspension was diluted to the required concentration and then added to the middle wells of a 96-well plate, and PBS was added to the edge wells. The wells with no cells and only culture medium were used as blank controls. • c) In addition to the cell plate used for compound analysis, another 96-well plate was prepared as a T0 plate, and 3-6 blank wells and 3-6 cell wells were added. The next day, CTG was used to test the cell viability as the T0 viability value of the cells. • d) The cell plate was incubated at 37 °C in a 5% CO2 incubator overnight. • e) The next day, each concentration of a compound subjected to a gradient dilution was added, and the cell plate was incubated at 37 °C in a 5% CO2 incubator for 72 h. The wells with no compound and only 0.5% DMSO were used as positive controls for cell growth. • f) CTG reagent (CellTiter-Glo kit) was added according to the manufacturer's instructions to test the cell viability value. • g) The plate was read using Biotek cytation3.0 microplate reader and the data were exported. • h) IC50 was calculated using GraphPad Prism 7.0 software.
(§4) The IC50 (half-maximal inhibitory concentration) of the compound was obtained using the following nonlinear fitting formula: Y = Bottom + (Top−Bottom)/(1+10^(∧)((LogIC50−X)*HillSlope)) [formula] • X: Log value of the compound concentration • Y: Inhibition rate (% inhibition) • Top: Maximum response • Bottom: Baseline response • HillSlope: Slope of the curve
(§5) The formula for calculating cell inhibition rate (inhibition rate %) was: [formula]

[3] = biological target: T2, Ba/F3 BCR-ABL1 I502L (Homo sapiens, UniProt P00519+P11274, I502L); experiment: Cell growth inhibitory activity assay (CellTiter-Glo), Ba/F3 BCR-ABL1 I502L cells; conditions: 72 h, CTG cell viability
T2 construct: BCR (N-terminal fusion partner of the oncoprotein); expressed in transfected cells; host or cells: Ba/F3 (lentiviral transduction, monoclonal line)
Description: as §2, §3, §4, §5

[4] = system: K562 cells; experiment: Cell growth inhibitory activity assay (CellTiter-Glo), K562 cells; conditions: Homo sapiens, 72 h, CTG cell viability
Outline: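 Growth inhibition of human K562 cells, sourced from Nanjing Kebai (CBP60529), was assessed with Promega's CellTiter-Glo kit, which measures viability through ATP quantification. Log-phase cells went into the inner wells of 96-well plates, with PBS in edge wells, incubated overnight at 37 °C and 5% CO2, then exposed to serially diluted compound for 72 h.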

[5] = biological target: T3, Ba/F3 BCR-ABL1 A337V (Homo sapiens, UniProt P00519+P11274, A337V); experiment: Cell growth inhibitory activity assay (CellTiter-Glo), Ba/F3 BCR-ABL1 A337V cells; conditions: 72 h, CTG cell viability
T3 construct: BCR (N-terminal fusion partner of the oncoprotein); expressed in transfected cells; host or cells: Ba/F3 (lentiviral transduction, monoclonal line)
Description: as §2, §3, §4, §5

[6] = biological target: T4, Ba/F3 BCR-ABL1 WT (Homo sapiens, UniProt P00519+P11274); experiment: Cell growth inhibitory activity assay (CellTiter-Glo), Ba/F3 BCR-ABL1 WT cells; conditions: 72 h, CTG cell viability
T4 construct: BCR (N-terminal fusion partner of the oncoprotein); expressed in transfected cells; host or cells: Ba/F3 (lentiviral transduction, monoclonal line)
Outline: as §1

[7] = biological target: T5, Ba/F3 BCR-ABL1 E255V/T315I (Homo sapiens, UniProt P00519+P11274, E255V/T315I); experiment: Cell growth inhibitory activity assay (CellTiter-Glo), Ba/F3 BCR-ABL1 E255V/T315I cells; conditions: 72 h, CTG cell viability
T5 construct: BCR (N-terminal fusion partner of the oncoprotein); expressed in transfected cells; host or cells: Ba/F3 (lentiviral transduction, monoclonal line)
Description: as §2, §3, §4, §5

[8] = biological target: T6, Ba/F3 BCR-ABL1 T315I (Homo sapiens, UniProt P00519+P11274, T315I); experiment: Cell growth inhibitory activity assay (CellTiter-Glo), Ba/F3 BCR-ABL1 T315I cells; conditions: 72 h, CTG cell viability
T6 construct: BCR (N-terminal fusion partner of the oncoprotein); expressed in transfected cells; host or cells: Ba/F3 (lentiviral transduction, monoclonal line)
Outline: as §1

[9] = biological target: T7, Ba/F3 BCR-ABL1 T315M (Homo sapiens, UniProt P00519+P11274, T315M); experiment: Cell growth inhibitory activity assay (CellTiter-Glo), Ba/F3 BCR-ABL1 T315M cells; conditions: 72 h, CTG cell viability
T7 construct: BCR (N-terminal fusion partner of the oncoprotein); expressed in transfected cells; host or cells: Ba/F3 (lentiviral transduction, monoclonal line)
Outline: as §1

[10] = biological target: T8, Ba/F3 BCR-ABL1 Y253H/E255K (Homo sapiens, UniProt P00519+P11274, E255K/Y253H); experiment: Cell growth inhibitory activity assay (CellTiter-Glo), Ba/F3 BCR-ABL1 Y253H/E255K cells; conditions: 72 h, CTG cell viability
T8 construct: BCR (N-terminal fusion partner of the oncoprotein); expressed in transfected cells; host or cells: Ba/F3 (lentiviral transduction, monoclonal line)
Description: as §2, §3, §4, §5

[11] = biological target: T9, Ba/F3 BCR-ABL1 P465S (Homo sapiens, UniProt P00519+P11274, P465S); experiment: Cell growth inhibitory activity assay (CellTiter-Glo), Ba/F3 BCR-ABL1 P465S cells; conditions: 72 h, CTG cell viability
T9 construct: BCR (N-terminal fusion partner of the oncoprotein); expressed in transfected cells; host or cells: Ba/F3 (lentiviral transduction, monoclonal line)
Description: as §2, §3, §4, §5

[12] = biological target: T10, Ba/F3 BCR-ABL1 V468F (Homo sapiens, UniProt P00519+P11274, V468F); experiment: Cell growth inhibitory activity assay (CellTiter-Glo), Ba/F3 BCR-ABL1 V468F cells; conditions: 72 h, CTG cell viability
T10 construct: BCR (N-terminal fusion partner of the oncoprotein); expressed in transfected cells; host or cells: Ba/F3 (lentiviral transduction, monoclonal line)
Description: as §2, §3, §4, §5

| IC50 [4] [nM] | Structure (SMILES) | IC50 [1] [nM] | IC50 [2] [nM] | IC50 [3] [nM] | IC50 [5] [nM] | IC50 [6] [nM] | IC50 [7] [nM] | IC50 [8] [nM] | IC50 [9] [nM] | IC50 [10] [nM] | IC50 [11] [nM] | IC50 [12] [nM] |
| --- | --- | --- | --- | --- | --- | --- | --- | --- | --- | --- | --- | --- |
| ≤ 5 | C[C@@H]1COCc2nc3cc(C(=O)Nc4ccc(OC(F)(F)Cl)cc4)cc(-c4cnc5c(c4)-c4nn(-c6nccc(C#N)n6)cc4C5)c3n21 [T-69-B, (R)-N-(4-(chlorodifluoromethoxy)phenyl)-6-(2-(4-cyanopyrimidin-2-yl)-2,4-dihydropyrazolo[3',4':3,4]cyclopenta[1,2-b]pyridin-7-yl)-4-methyl-3,4-dihydro-1H-benzo[4,5]imidazo[2,1-c][1,4]oxazine-8-carboxamide] | > 1000 | 5 to 50 | ≤ 5 | 50 to 1000 | ≤ 5 | ≤ 5 | ≤ 5 | ≤ 5 | 5 to 50 | 50 to 1000 | 50 to 1000 |
| ≤ 5 | C[C@@H]1COCc2nc3cc(C(=O)Nc4ccc(OC(F)(F)Cl)cc4)cc(-c4cnc5c(c4)-c4nn(-c6cnccn6)cc4C5)c3n21 [T-71, (R)-N-(4-(chlorodifluoromethoxy)phenyl)-4-methyl-6-(2-(pyrazin-2-yl)-2,4-dihydropyrazolo[3',4':3,4]cyclopenta[1,2-b]pyridin-7-yl)-3,4-dihydro-1H-benzo[4,5]imidazo[2,1-c][1,4]oxazine-8-carboxamide] | > 1000 | 5 to 50 | 5 to 50 | 50 to 1000 | ≤ 5 | ≤ 5 | ≤ 5 | 5 to 50 | ≤ 5 | 50 to 1000 | 50 to 1000 |
| ≤ 5 | Cc1cc(C)nc(-n2cc3c(n2)-c2cc(-c4cc(C(=O)Nc5ccc(OC(F)(F)Cl)cc5)cc5nc6n(c45)[C@H](C)COC6)cnc2C3)n1 [T-76, (R)-N-(4-(chlorodifluoromethoxy)phenyl)-6-(2-(4,6-dimethylpyrimidin-2-yl)-2,4-dihydropyrazolo[3',4':3,4]cyclopenta[1,2-b]pyridin-7-yl)-4-methyl-3,4-dihydro-1H-benzo[4,5]imidazo[2,1-c][1,4]oxazine-8-carboxamide] | > 1000 | ≤ 5 | 5 to 50 | 50 to 1000 | ≤ 5 | ≤ 5 | ≤ 5 | ≤ 5 | ≤ 5 | 50 to 1000 | 50 to 1000 |
| ≤ 5 | C[C@@H]1COCc2nc3cc(C(=O)Nc4ccc(OC(F)(F)Cl)cc4)cc(-c4cnccn4)c3n21 [T-115, (R)-N-(4-(chlorodifluoromethoxy)phenyl)-4-methyl-6-(pyrazin-2-yl)-3,4-dihydro-1H-benzo[4,5]imidazo[2,1-c][1,4]oxazine-8-carboxamide] | > 1000 | 50 to 1000 | 50 to 1000 | 50 to 1000 | ≤ 5 | 5 to 50 | 5 to 50 | > 1000 | 5 to 50 | 50 to 1000 | 50 to 1000 |
